Data taken from PubChem BioAssay (NCI).
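Values below derive from 48-hour exposures of cells grown in 96-well plates, with endpoints linearly interpolated between the two concentrations bracketing the appropriate inhibition level. The concentration for 50% growth inhibition is given as GI50. TGI marks complete inhibition of growth.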

Experiments:
Assay in all cases: DTP human tumour cell line panel, 48 h
COLO 205 colon = test system: COLO 205 colon
MALME-3M melanoma = test system: MALME-3M melanoma
U251 CNS = test system: U251 CNS
RPMI-8226 leukemia = test system: RPMI-8226 leukemia
A549 NSCLC = test system: A549 NSCLC
SK-MEL-5 melanoma = test system: SK-MEL-5 melanoma
NCI-H226 lung = test system: NCI-H226 lung
HOP-62 NSCLC = test system: HOP-62 NSCLC
K-562 leukemia = test system: K-562 leukemia
UACC-257 melanoma = test system: UACC-257 melanoma

N#Cc1c(NC(=O)c2cccc(C(F)(F)F)c2)sc2c1CCC(=O)C2
GI50 (COLO 205 colon): 0.289 µM
TGI (COLO 205 colon): 0.809 µM
GI50 (MALME-3M melanoma): 0.326 µM
TGI (MALME-3M melanoma): 1.12 µM
GI50 (U251 CNS): 0.352 µM
TGI (U251 CNS): 1.58 µM
GI50 (RPMI-8226 leukemia): 0.239 µM
TGI (RPMI-8226 leukemia): 0.869 µM
GI50 (A549 NSCLC): 1.88 µM
TGI (A549 NSCLC): 6.03 µM
GI50 (SK-MEL-5 melanoma): 1.3 µM
TGI (SK-MEL-5 melanoma): 2.65 µM
GI50 (NCI-H226 lung): 1.55 µM
TGI (NCI-H226 lung): 5.02 µM
GI50 (HOP-62 NSCLC): 1.76 µM
TGI (HOP-62 NSCLC): > 26.4 µM
GI50 (K-562 leukemia): 0.217 µM
GI50 (UACC-257 melanoma): 0.728 µM
TGI (UACC-257 melanoma): 3.85 µM

C=C1C(=O)O[C@H]2[C@H]1CC/C(CNC(=O)c1c[nH]c3ccc(F)cc13)=C\CC[C@@]1(C)O[C@@H]21
GI50 (COLO 205 colon): 0.583 µM
TGI (COLO 205 colon): 2.14 µM
GI50 (MALME-3M melanoma): 1.41 µM
TGI (MALME-3M melanoma): 3.3 µM
GI50 (U251 CNS): 2.68 µM
TGI (U251 CNS): 7.94 µM
GI50 (RPMI-8226 leukemia): 1.14 µM
TGI (RPMI-8226 leukemia): 3.72 µM
GI50 (A549 NSCLC): 4.59 µM
TGI (A549 NSCLC): 19.6 µM
GI50 (SK-MEL-5 melanoma): 2.25 µM
TGI (SK-MEL-5 melanoma): 5.56 µM
GI50 (NCI-H226 lung): 13.9 µM
TGI (NCI-H226 lung): 38.6 µM
GI50 (HOP-62 NSCLC): 4.12 µM
TGI (HOP-62 NSCLC): 19.7 µM
GI50 (K-562 leukemia): 0.856 µM
TGI (K-562 leukemia): 6.17 µM
GI50 (UACC-257 melanoma): 2.06 µM
TGI (UACC-257 melanoma): 4.89 µM

Brc1cccc(-c2cc(-c3ccc4c(c3)OCCO4)[nH]n2)c1
GI50 (COLO 205 colon): 1.03 µM
TGI (COLO 205 colon): 26 µM
GI50 (MALME-3M melanoma): 1.3 µM
TGI (MALME-3M melanoma): 53.4 µM
GI50 (U251 CNS): 1.2 µM
TGI (U251 CNS): 33.4 µM
GI50 (RPMI-8226 leukemia): 1.43 µM
TGI (RPMI-8226 leukemia): 236 µM
GI50 (A549 NSCLC): 1.57 µM
TGI (A549 NSCLC): 37.6 µM
GI50 (SK-MEL-5 melanoma): 1.17 µM
TGI (SK-MEL-5 melanoma): 30.3 µM
GI50 (NCI-H226 lung): 12.1 µM
TGI (NCI-H226 lung): 60.9 µM
GI50 (HOP-62 NSCLC): 1.38 µM
TGI (HOP-62 NSCLC): 41.3 µM
GI50 (K-562 leukemia): 0.584 µM
TGI (K-562 leukemia): 250 µM
GI50 (UACC-257 melanoma): 11.6 µM
TGI (UACC-257 melanoma): 52.9 µM

COC1(C(=O)N2Cc3nc(Cl)nc(N[C@H](C)c4cc(N)cc(C(F)(F)F)c4)c3C2)CCOCC1
GI50 (COLO 205 colon): 18 µM
TGI (COLO 205 colon): 33.8 µM
GI50 (MALME-3M melanoma): 17.3 µM
TGI (MALME-3M melanoma): 43 µM
GI50 (U251 CNS): 14.4 µM
TGI (U251 CNS): 37.7 µM
GI50 (RPMI-8226 leukemia): 22.2 µM
TGI (RPMI-8226 leukemia): > 83.2 µM
GI50 (A549 NSCLC): 21.1 µM
TGI (A549 NSCLC): > 100 µM
GI50 (SK-MEL-5 melanoma): 14.8 µM
TGI (SK-MEL-5 melanoma): 28.1 µM
GI50 (NCI-H226 lung): 18.2 µM
TGI (NCI-H226 lung): 72.2 µM
GI50 (HOP-62 NSCLC): 15.2 µM
TGI (HOP-62 NSCLC): 36 µM
GI50 (K-562 leukemia): 0.888 µM
TGI (K-562 leukemia): > 68.4 µM
GI50 (UACC-257 melanoma): 17.2 µM
TGI (UACC-257 melanoma): 37.3 µM

CCOc1ccc(NC(=O)CC2Sc3ccccc3NC2=O)cc1 (centres undefined)
TGI (COLO 205 colon): > 100 µM
TGI (MALME-3M melanoma): > 100 µM
TGI (U251 CNS): > 100 µM
TGI (RPMI-8226 leukemia): > 100 µM
TGI (A549 NSCLC): > 100 µM
TGI (SK-MEL-5 melanoma): > 100 µM
TGI (NCI-H226 lung): > 100 µM
TGI (HOP-62 NSCLC): > 100 µM
TGI (K-562 leukemia): > 100 µM
TGI (UACC-257 melanoma): > 100 µM

C=CC(=O)N[C@H]1C=C(C)c2c(-c3cnc4ccccc4c3)c3c(N)ncnc3n2C1
GI50 (COLO 205 colon): 15.4 µM
TGI (COLO 205 colon): 43.8 µM
GI50 (MALME-3M melanoma): 11.6 µM
TGI (MALME-3M melanoma): 25.7 µM
GI50 (U251 CNS): 21.4 µM
TGI (U251 CNS): 68.2 µM
GI50 (RPMI-8226 leukemia): 17.9 µM
TGI (RPMI-8226 leukemia): 60.6 µM
GI50 (A549 NSCLC): 11.6 µM
TGI (A549 NSCLC): > 67 µM
GI50 (SK-MEL-5 melanoma): 12.5 µM
TGI (SK-MEL-5 melanoma): 25.2 µM
GI50 (NCI-H226 lung): 8.85 µM
TGI (NCI-H226 lung): > 68.1 µM
GI50 (HOP-62 NSCLC): 20.9 µM
TGI (HOP-62 NSCLC): 66.7 µM
GI50 (K-562 leukemia): 24.8 µM
TGI (K-562 leukemia): > 100 µM
GI50 (UACC-257 melanoma): 13.4 µM
TGI (UACC-257 melanoma): > 80.4 µM

O=C1/C(=C/c2ccc(F)cc2)CCOc2ccc([N+](=O)[O-])cc21
GI50 (COLO 205 colon): 18.8 µM
TGI (COLO 205 colon): 35 µM
GI50 (MALME-3M melanoma): 2.27 µM
TGI (MALME-3M melanoma): 5.79 µM
GI50 (U251 CNS): 40.1 µM
TGI (U251 CNS): > 100 µM
GI50 (RPMI-8226 leukemia): 0.862 µM
TGI (RPMI-8226 leukemia): 3.14 µM
GI50 (A549 NSCLC): 8.47 µM
TGI (A549 NSCLC): 23.7 µM
GI50 (SK-MEL-5 melanoma): 1.84 µM
TGI (SK-MEL-5 melanoma): 3.6 µM
GI50 (NCI-H226 lung): 20.1 µM
TGI (NCI-H226 lung): 39.6 µM
GI50 (HOP-62 NSCLC): 2.89 µM
TGI (HOP-62 NSCLC): 8.33 µM
GI50 (K-562 leukemia): 0.964 µM
TGI (K-562 leukemia): > 100 µM
GI50 (UACC-257 melanoma): 2.62 µM
TGI (UACC-257 melanoma): 6.29 µM
